Key:
Format in all cases: in vivo, human
[1] = system: healthy, obese adults with normal blood pressure; assay: Effect of betaine on blood pressure, controlled randomized double-blinded 12-week intervention study
Source text: (§1) The effects of betaine supplementation on blood pressure, and in addition on body weight, body composition, resting energy expenditure, and concentrations of serum total and lipoprotein lipids and plasma homocysteine in humans, were studied. The participants were healthy, obese adults with normal blood pressure.
(§2) Forty-two subjects (14 males, 28 females) without any chronic disease and with normal liver, kidney and thyroid function participated in the study. The inclusion criteria for body mass index (BMI) was 28-40 kg/m^2 and for age 25-60 years. Serum concentration of total triglycerides had to be <3.5 mmol/l and that of total cholesterol <7.5 mmol/l. Inclusion criteria for fasting concentration of plasma glucose was <6.7 mmol/l. Subjects with lipid lowering medication were excluded as well women with perimenopause. Four women were postmenopausal in the control group and 6 were postmenopausal in the betaine group. None of the participants were on a medication for hypertension.
(§3) The study was a controlled, randomized double-blinded parallel study. […] Grapefruit juice was added to simulate the bitter taste of betaine. The subjects were on their regular eucaloric diet during this period. For the intervention period with a hypocaloric (−2100 kJ or −500 kcal) diet the subjects were randomly assigned in two groups (20 for the control group, 22 for the betaine group). The subjects were matched for BMI, gender and menstrual cycle.
(§4) The control group consumed orange juice 1 dl twice a day and the betaine group consumed betaine enriched orange juice 1 dl twice a day. The amount of betaine was 3 g per 1 dl orange juice, giving a daily betaine dose of 6 g.
The data were analyzed with the SPSS/PC+ statistics program (V8.0, SPSS; Chicago, Ill.). Before further analyses, normal distribution of the variables was checked with the Kolmogorov-Smimov test with Lilliefors significance correction. Variables with abnormal distribution (TG) were logarithmized and the logarithmized values were used in further analyses. GLM for repeated measures was used to test the changes within time. In cases the result of this analysis was significant paired t-test was used for two-tailed comparisons within the groups. Student's t-test was used for between-group comparisons. […] All data are expressed as mean±SD.
Blood pressure was measured from the right arm after five minutes of rest in sitting position using a zero mercury sphygmomanometer. Two measurements were performed and the mean of them was calculated and used for further analyses.

[2] = system: homocysteine; assay: Total homocysteine by HPLC in the intervention study
Source text: as §1, §2, §3, §4
Plasma total homocysteine was determined by a modification of the highpressure liquid chromatographic method described by Ubbink et al. (Ubbink, J. B., Vermaak, W. J. H., Bissbort, S. Rapid high-performance liquid chromatographic assay for total homocysteine levels in human serum. J Chromatogr (1991) 565:441446). The modified mobile phase consisted of 0.37 mol/l acetate and 0.5% methanol, pH 4.15.

[3] = system: healthy, obese adults with normal blood pressure; assay: Tolerability of the daily betaine dose in the intervention study; settings: 6 g daily dose, 12 weeks
Source text: as §1, §2
as §3, with “The subjects were matched for BMI, gender and menstrual cycle.” left out

[4] = Betaine absorption and excretion: blood, serum and urine levels after administration
Method: There was, however, no clear correlation between blood and urine betaine levels. After administration of 1, 3 or 6 g betaine an amount of about 3, 5 and 7%, respectively, was recovered as betaine and dimethylglycine (DMG) in 24 h urine. After loading betaine 100 mg/kg, peak serum concentrations were found 1-2 h after loading; the concentrations varying a lot with indiviudual (148-258 μmol/l).

[5] = 4 wk (beginning of intervention period), betaine group, mean ± SD

Time of peak serum concentrations after loading ([4]; loading betaine 100 mg/kg): 1 to 2 h
Peak serum concentrations ([4]; loading betaine 100 mg/kg, varying with individual): 148 to 258 µmol/L
Betaine in blood and urine of persons given betaine (result in words) ([4]; persons given betaine in the study): Significantly increased amounts
Structure (SMILES): C[N+](C)(C)CC(=O)[O-] [Betaine, trimethylglycine]
Diastolic blood pressure [1, 5]: 85.4 ± 7.9 mmHg
Systolic blood pressure [1, 5]: 122.5 ± 9.5 mmHg
Change in diastolic blood pressure during the intervention period ([1]; 12-week intervention, betaine 6 g daily, mean ± SD, P=0.219 vs control group): −4.9 ± 6.6 mmHg
Change in systolic blood pressure during the intervention period ([1]; 12-week intervention, betaine 6 g daily, mean ± SD, P=0.740 vs control group): −1.4 ± 8.0 mmHg
Diastolic blood pressure ([1]; 16 wk (end of intervention period), betaine 6 g daily in orange juice, mean ± SD, P=0.002 vs 4 wk): 80.5 ± 7.1 mmHg
Systolic blood pressure ([1]; 16 wk (end of intervention period), betaine 6 g daily in orange juice, mean ± SD, P=0.432 vs 4 wk): 121.1 ± 9.4 mmHg
Diastolic blood pressure (result in words) ([1]; betaine group, normotensive subjects, 4 wk vs 16 wk): decreased significantly
Serum homocysteine concentration ([2]; 4 wk (beginning of intervention), betaine group, mean ± SD): 8.76 ± 1.63 µmol/L
Serum homocysteine concentration ([2]; 16 wk (end of intervention), betaine 6 g daily, P=0.025 vs 4 wk): 7.93 ± 1.52 µmol/L
Change in serum homocysteine concentration during the intervention period ([2]; betaine 6 g daily, P=0.030 vs control group): -0.83 ± 0.34 µmol/L
Side effects [3]: no side effects were observed
Tolerability [3]: well tolerated
